Results on one substance are retold here after paper PMC12348660, “Synthesis, Characterization, HSA/DNA Binding, and Cytotoxic Activity of [RuCl2(η^6-p-cymene)(bph-κN)] Complex” (Molecules, 2025).

This experiment concerns the target T1, human serum albumin (HSA) (Homo sapiens, UniProt P02768).
T1 construct: gene ALB
The experiment in a line: intrinsic tryptophan fluorescence quenching titration (Stern-Volmer, double-log), […]-310 K. It counts as binding. As to conditions: read-out: Kb [M^-1] (converted).

T1 sequence (P02768 25-609): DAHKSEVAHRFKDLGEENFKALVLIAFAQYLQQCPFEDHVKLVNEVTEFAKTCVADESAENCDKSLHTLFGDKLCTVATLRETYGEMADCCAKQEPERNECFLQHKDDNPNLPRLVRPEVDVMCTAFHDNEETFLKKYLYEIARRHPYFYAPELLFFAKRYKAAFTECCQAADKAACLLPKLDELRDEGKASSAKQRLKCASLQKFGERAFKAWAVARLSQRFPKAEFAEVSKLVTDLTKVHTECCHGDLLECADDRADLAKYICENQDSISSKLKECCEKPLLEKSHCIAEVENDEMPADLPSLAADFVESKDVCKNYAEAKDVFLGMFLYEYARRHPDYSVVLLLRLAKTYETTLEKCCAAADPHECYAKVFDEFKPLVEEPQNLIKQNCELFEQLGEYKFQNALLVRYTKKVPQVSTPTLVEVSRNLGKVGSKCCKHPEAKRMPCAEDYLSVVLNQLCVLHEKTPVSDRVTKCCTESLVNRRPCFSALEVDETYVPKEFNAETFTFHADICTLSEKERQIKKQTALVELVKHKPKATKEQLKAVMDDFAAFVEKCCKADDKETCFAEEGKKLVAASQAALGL

Take “dichlorido((diphenylmethylidene)hydrazine-κN)(η^6-p-cymene)ruthenium(II) [compound 1]”: the Kd was 60.6 µM.
